US20240082232A1, “COMPOSITIONS AND METHODS FOR TREATMENT OF OVARIAN AND BREAST CANCER” (Board of Regents, The University of Texas System, priority 2021, published 2024)
Entries after “also recorded” stand apart in the source; their conditions may differ.

Key:
[1] = tested on: MEF2D binding sites in SKOv3 ovarian cancer cells; format: cell-based, human
Method: Genome-wide binding of MEF2D in SKOv3 ovarian cancer cells was then examined using chromatin immunoprecipitation sequencing (Chip-seq). […] To identify a MEF2D consensus recognition sequence in ovarian cancer cells, de novo-motif discovery analysis was performed.
Chip assays were performed using the Magna Chip A Kit (Millipore). […] Nuclei were isolated and sonicated to obtain 200-1000 bp DNA fragments using the QSONICA sonicator for 30 cycles with 10 seconds pulses at 100% amplitude with 2 min of incubation on ice between pulses. […] For ChIP-Sequence, 500 μg of chromatin per sample was immunoprecipitated with 40 μg of MEF2D antibody. Input determined from 1% of the cell lysate was used as a negative control. Purified and enriched DNA was quantified using real time quantitative PCR (RT-qPCR) with the following primers. […] Analysis of qPCR data was calculated using fold enrichment method (The ChIP signals are divided by the IgG antibody signals, 2^-DDCt).
Sequencing was performed by the Sequencing and Microarray Facility (SMF) at MD Anderson Cancer Center. […] Libraries were amplified by 8 cycles of PCR and then size distribution was assessed using the 4200 TapeStation High Sensitivity D1000 ScreenTape (Agilent Technologies) and quantified using the Qubit dsDNA HS Assay Kit (ThermoFisher). […] The raw reads were first preprocessed to remove sequencing adapters and low quality reads. […]

[2] = tested on: SKOv3, OVCAR8, HCC5032, MDA-MB-231 cells; experiment: DNA damage: γ-H2AX immunofluorescence and comet assay; format: cell-based, human
Method: (A) The Heatmap representation unsupervised hierarchical clustering of differentially expressed genes associated with DNA repair. […] (B) Analysis of DNA Repair and apoptosis genes. BRCA2, EXO1, FANCD2, LIG4, XRCC4, BAX, BCL2, CASP7, and TRADD were analyzed using RT-PCR in OVCAR8 ovarian and MDA-MB-231 breast cancer cells. […] (C) Quantification of DNA damage (γ-H2AX). Endogenous γ-H2AX was stained with anti-γ-H2AX antibody in the cells treated with single agent or combined for 8 hrs as indicated. […] Red indicates γ-H2AX and Blue-DAPI indicates nuclear stain. Representative images are presented (right). Bar 20 […]. Red γ-H2AX dots were quantified with OLYMPUS CellSens Dimension software. […] Bar 20 μm. (D) Detection of apoptosis using Annexin V/Propidium iodide (PI) staining.
(A) The heatmap of unsupervised hierarchical clustering of differently expressed genes associated with apoptosis. […] (B) Analysis of DNA repair and apoptosis gene. […] Representative experiments were from two independent experiment and 3 technical repeats per experiments. (C) Quantification of DNA damage using comet assay. […] Slides were then stained with Vista Green DNA dye and viewed using Olympus fluorescence microscope with FITC filter. Olive Tail Moment was measured using CaspLab1.2.3β2 software. […] Representative experiments were from three independent experiments with a minimum of 50 cells.
Cells were trypsinized and resuspended at 2×10^5/mL in cold PBS without Ca^2+ and Mg^2+. Cells were mixed with pre-warmed comet agarose at 1:10 (v/v) ratio. 10 uL of cell agarose mixture was plated onto comet slides pre-coated with 75 uL of agarose and chilled at 4° C. for 15 min to set. Cells were lysed in 25 mL of Lysis buffer at 4° C. for 2 hrs and washed with alkaline solution (pH 10). Comet slides were electrophoresed in cold alkaline solution at 20V for 15 min. […] Experiments were run in triplicate and Olive Tail Moment was measured using CaspLab1.2.β2 software (CaspLab.com). […] 50-200 Cells were measured for each treatment and experiments were repeated twice independently to ensure reproducibility. […]

[3] = tested on: MEF2D binding to FANCD2, EXO1, XRCC4; experiment: ChIP-qPCR of MEF2D binding to promoter/enhancer regions; format: cell-based, human; conditions: for MEF2D binding to EXO1 and XRCC4 promoter/enhancer regions: all cell lines tested; for MEF2D-association with the FANCD2 promoter/enhancer region: all four cell lines assessed
Method: (A) Alterations affecting MEF2 family genes in ovarian and breast cancer by TCGA analysis. […] Data and plots were obtained using cBioPortal (21, 58, 59). (B) MEF2D consensus DNA motifs. The MEF2 motif is enriched in MEF2D-binding sites in SKOv3 cells. (C) GO analysis of MEF2D-bound genes. […] (E) Chip and RT-qPCR analysis of FANCD2, EXO1, and XRCC4 genes. […] Chip pull-down samples were analyzed by RT-qPCR.
(A) MEF2D-binding sites in human ovarian cancer cells. (B) Chip analysis of FANCD2, EXO1, and XRCC4 genes. […] Chip pull-down samples were analyzed by RT-qPCR using as indicated.
Chip assays were performed using the Magna Chip A Kit (Millipore). […] Nuclei were isolated and sonicated to obtain 200-1000 bp DNA fragments using the QSONICA sonicator for 30 cycles with 10 seconds pulses at 100% amplitude with 2 min of incubation on ice between pulses. For individual ChIP assay, 100 μg of soluble chromatin per sample was immunoprecipitated with 8 μg of mouse IgG control antibody (Santa Cruz, sc-2025), 8 μg of rabbit control antibody (Millipore, PP64B), 8 μg of MEF2D antibody (Santa Cruz, sc-27115 3×), 8 μg of RNA polymerase II antibody (Abcam, ab817), 6 μg of Histone H3 (acetyl K27) antibody (Abcam, ab45173) or 6 μg of Histone H3 (tri methyl K4) (Abcam, ab8580). For ChIP-Sequence, 500 μg of chromatin per sample was immunoprecipitated with 40 μg of MEF2D antibody. Input determined from 1% of the cell lysate was used as a negative control. Purified and enriched DNA was quantified using real time quantitative PCR (RT-qPCR) with the following primers. FANCD2D Forward, 5′-ACCTGTTATGAGCGTGAAGTC-3′ (SEQ ID NO:1) and Reverse, 5′-GATGCAGGACTGTGCATTAGA-3′ (SEQ ID NO:2); EXD2 Forward, 5′-GGTCTGGCCTAAGGTTTCTTC-3′ (SEQ ID NO:3) and Reverse, 5′-CAG TTC ACG CTG GGT TCT T-3′ (SEQ ID NO:4); and XRCC Forward, 5′-GCAGTCTTCCTAGTCTCAACT-3′ (SEQ ID NO:5) and Reverse, 5′-TTGCCCTTCTAGGAGCTTAATG-3′ (SEQ ID NO:6). RT-qPCR was performed using iTaq Universal SYBR Green Supermix (Bio-Rad, 172-5124) in a CFX Connect RT-qPCR (Bio-Rad). Thermal cycling condition was as follows: 94° C. for 10 min, followed by 40 cycles of 94° C. for 20 sec, and 60° C. for 60 sec. Analysis of qPCR data was calculated using fold enrichment method (The ChIP signals are divided by the IgG antibody signals, 2^-DDCt).

[4] = tested on: ovarian cancer cell lines; experiment: cells; conditions: read-out: IC50, growth of ovarian cancer cell lines
MDA-MB-231 xenografts = experiment: MDA-MB-231 mammary fat pad xenograft; format: in vivo, mice; conditions: 5 weeks treatment
Method: (§1) (^nsp>0.05, *p<0.05; ** p<0.01). […] (^nsp>0.05, *p<0.05; ** p<0.01). […] Scale bar, 50 μM.
Forty female nu/nu mice were injected with 0.8×10^6 MDA-MB-231 cells into their fourth mammary fat pads. […] Tumors were measured every week as noted above (SKOv3 xenograft models).

[5] = Toxicology / pre-clinical studies, hematologic toxicity; format: in vivo
[6] = tested on: MDA-MB-231 orthotopic xenografts; experiment: MDA-MB-231 orthotopic xenografts (paclitaxel sensitivity study); format: in vivo, mice
organoid = experiment: Organoid growth; format: cell-based
Method: To evaluate additive or synergistic interactions, a combination Index (CI value) was calculated with CalcuSyn software.

[7] = tested on: OVCAR8 and MDA-MB-231 xenograft tumors; experiment: IHC of xenograft tumors at study termination; format: in vivo, mice
Method: as §1
Tumors growing as xenografts were collected for histology with H&E and IHC staining. Routine H&E staining detected high-grade ovarian cancer in ovarian cancer xenograft models and breast cancer morphology in the breast cancer xenograft model, respectively. IHC of OVCAR8 and MDA-MB-231 xenograft tumors at study termination recapitulated in vitro studies.
Formalin fixed and paraffin embedded mouse tissue sections were deparaffinized and rehydrated in gradient ethanol solutions. Antigens were retrieved in Rodent Decloaker (BioCare Medical, RD913M) and microwaved twice in an EZ Retriever System V3 (BioGenex) at 95° C. for 5 min. Tissues were blocked in PeroxAbolish (BioCare Medical, PXA969M) for 30 min, Rodent Block M (BioCare Medical, RBM961L) for 30 min, and 5% BSA in PBS for 30 min Tissues were incubated with primary antibody as indicated overnight at 4° C. VisUCyte HRP Polymer IgG (R&D Systems, VC001-025 for mouse, VC003-025 for rabbit) was applied for 30 min at room temperature followed by DAB chromogenesis (BioCare Medical, BDB2004L). Tissues were counter-stained with CAT hematoxylin (Thermo Fisher, CATHE-M) for 20 sec. The slides were then dehydrated through gradient ethanol solutions and two passes of xylene and sealed with Permount (Thermo Fisher, SP15-100).

SKOv3 xenografts = experiment: SKOv3 subcutaneous xenograft; format: in vivo, mice; conditions: oral, five times per week, 4 weeks
Method: as §1

DT40 PARP-1 −/− cells = experiment: Dose-response in DT40 PARP-1 -/- cells; conditions: cells lacking PARP1/2
Method: Representative data are from three independent experiments with 4 technical repeats per experiment. […] The IC50 indicated on the curves was calculated using GraphPad Prism 8.
To further test this possibility, DT40 PARP-1 −/−cells that lack PARP enzyme activity (avian cells lack PARP2) were treated with SIK2 inhibitors or olaparib.

[8] = tested on: SKOv3 and OVCAR8 SIK2 knock-out cells; experiment: Olaparib dose-response in SIK2 knock-out cells; conditions: SIK2 knock-out by CRISPR/Cas9
Method: (§2) Representative experiments were from two independent experiments with four technical repeats per experiment. (B) Dose-response curves of olaparib in paired cancer cell lines with or without knockout of SIK2 (top) and with or without stable transfection of SIK2 (bottom). The median inhibitory concertation (IC50) of olaparib was calculated using GraphPad Prism 8. Representative experiments are from two independent experiments with four technical repeats per experiment. Western analysis confirmed either SIK2 knock out (top) or overexpression (bottom).
(§3) To exclude potential off-target effects of SIK2 inhibitors, SIK2 was knocked down by CRISPR/Cas9 and stable ectopic expression of SIK2 was established in SKOv3 and OVCAR8 ovarian cancer cells.
OVCAR8 and SKOv3 SIK2 knock out cell lines were established using CRISPR/Cas9 technology known in the art. Briefly, a plasmid with GFP containing Cas9 and the sgRNA expression were transfected to cancer cells. […] Transfected cells were isolated by FACS for single-cell culture 2-3 days after transfection, and then the cells were expanded and harvested for detection of the protein expression using western analysis.

[9] = tested on: SKOv3 and OVCAR8 cells with stable ectopic expression of SIK2; experiment: Olaparib dose-response in cells with stable ectopic SIK2 expression
Method: as §2, §3

COc1c(F)cc(F)cc1-c1c[nH]c2ncc(-c3cnn(C4CCNCC4)c3)cc12 [Compound A, 3-(3,5-difluoro-2-methoxyphenyl)-5-(1-(piperidin-4-yl)-1H-pyrazol-4-yl)-1H-pyrrolo[2,3-b]pyridine]
MEF2D binding sites [1]: 36 binding sites
levels of γ-H2AX and tailed DNA [2]: modestly increased
MEF2D binding to EXO1 and XRCC4 promoter/enhancer regions [3]: significantly decreased
MEF2D-association with the FANCD2 promoter/enhancer region [3]: decreased
IC50 [4]: 800 to 2600 nM

COc1c(F)cc(F)cc1-c1c[nH]c2ncc(-c3cnn(C4CCN(S(C)(=O)=O)CC4)c3)cc12 [Compound B, 3-(3,5-difluoro-2-methoxyphenyl)-5-(1-(1-(methylsulfonyl)piperidin-4-yl)-1H-pyrazol-4-yl)-1H-pyrrolo[2,3-b]pyridine]
tumor burden / tumor volume (MDA-MB-231 xenografts): tumor burden remained unchanged
hematologic toxicity [5]: minimal hematologic toxicity; also recorded: little or no hematopoietic toxicity
survival of mice [6]: prolonged the survival
xenograft growth [6]: inhibited xenograft growth
organoid growth (organoid): inhibits organoid growth inducing cell death
levels of γ-H2AX and tailed DNA [2]: modestly increased
nuclear p-HDAC5 staining [7]: decreased
nuclear γ-H2AX staining [7]: increased nuclear γ-H2AX staining
MEF2D binding to EXO1 and XRCC4 promoter/enhancer regions [3]: significantly decreased
MEF2D-association with the FANCD2 promoter/enhancer region [3]: decreased
IC50 [4]: 800 to 2600 nM

O=C(c1cc(Cc2n[nH]c(=O)c3ccccc23)ccc1F)N1CCN(C(=O)C2CC2)CC1 [Olaparib, reference compound]
tumor growth (SKOv3 xenografts): significantly inhibited tumor growth
tumor burden / tumor volume (MDA-MB-231 xenografts): tumor burden remained unchanged
levels of γ-H2AX and tailed DNA [2]: modestly increased
nuclear p-HDAC5 staining [7]: not
sensitivity of DT40 PARP-1 −/− cells (DT40 PARP-1 −/− cells): resisted
IC50 in SIK2 deficient cells compared to control cells [8]: lower IC50
IC50 in cells with stable ectopic expression of SIK2 [9]: increased IC50
